{
  "source": "ChEMBL document CHEMBL5725355",
  "about": "“Methods for treating seizure disorders and pain” (2017)",
  "key": {"[1]": {"assay": "(§1) Voltage-Clamp Assay: All experiments were conducted at room temperature (22-24° C.) with an EPC-10 amplifier and Pulse software (HEKA, Lambrecht/Pfalz, Germany) in the whole-cell mode of the patch-clamp technique. Human embryonic kidney (HEK)-293 cell lines stably expressing hNav1.1, hNav1.5, hNav1.7 channels (generously provided by Dr. Christopher Lossin, University of California Davis), hNav1.4 (Frank Lehmann-Horn, University of Ulm), or hKv2.1 channels (James Trimmer, University of California Davis) were bathed in extracellular solution containing (in mM): 160 NaCl; 4.5 KCl; 1 MgCl2; 2 CaCl2; 10 HEPES [pH was adjusted to 7.4 using NaOH (310 mOsm)]. Pipettes were filled with intracellular solution containing (in mM): 145 KF; 2 MgCl2; 10 ethylene glycol tetraacetic acid; 10 HEPES (pH adjusted to 7.2 with KOH; 300 mOsm). Neuroblastoma N1E-115 cells (ATCC, Manassa, Va., USA) expressing Nav1.2 were patched with a CsF internal solution consisting of (in mM): 10 NaF; 110 CsF; 20 CsCl; 2 ethylene glycol tetraacetic acid; 10 HEPES (CsOH to pH 7.35; 300 mOsm). All pipette tip resistances were 2-4 MΩ. Series resistances of 3-10 MΩ were compensated 40-80%. All cells were voltage-clamped to a holding potential of −90 mV unless otherwise specified. The sampling frequency was 5 kHz. Na+ currents were elicited by 30-ms pulse to 0 mV from −90 mV applied every 10 s. […]"}, "[2]": {"assay": "as §1", "remark": "listed apart in the source"}, "[3]": {"assay": "as §1", "remark": "listed apart in the source"}, "[4]": {"assay": "as §1", "remark": "listed apart in the source"}, "[5]": {"assay": "as §1", "remark": "listed apart in the source"}, "[6]": {"assay": "as §1", "remark": "listed apart in the source"}},
  "data": [
    {"smiles": "Nc1nc2ccc(SC(F)(F)F)cc2s1", "values": [
      {"measurement": "EC50", "setting": "[1]", "value": 5.8, "unit": "µM"},
      {"measurement": "EC50", "setting": "[2]", "value": 4.5, "unit": "µM"},
      {"measurement": "EC50", "setting": "[3]", "value": 7.9, "unit": "µM"},
      {"measurement": "EC50", "setting": "[4]", "value": 6.9, "unit": "µM"},
      {"measurement": "EC50", "setting": "[5]", "value": 22.3, "unit": "µM"},
      {"measurement": "EC50", "setting": "[6]", "value": 2200, "unit": "nM"}
    ]}
  ]
}
